Read-outs that look alike come from different tables or passages of the source.
Legend:
Assay type in all cases: cell-based
HepG2 = assay: MTT cytotoxicity assay, HepG2 (liver cancer); conditions: Homo sapiens
Protocol: (§1) Cell survival after exposure to the sphingolipid metabolite mimetics was examined by MTT cytotoxicity assay. HepG2, A431, HeLa, MCF-7 and SA cells (7000 cells/well) were seeded in each well of a 96-well plate for 24 h. New medium was added to give final concentrations of 0 to 200 μM of the sphingolipid metabolite mimetics. Then, 50 μl of 1 mg/ml 3-(4,5-dimethylthiazol-2-yl)-2,5-diphenyltetrazolium bromide (MTT, Sigma-Aldrich Chemical) was added to each well for 4 h incubation at 37° C. The purple formazan formed was then solubilized by DMSO and absorbance at 570 nm was read by a microplate reader (Molecular Devices, Sunnyvale, Calif.).

A431 = assay: MTT cytotoxicity assay, A431 (squamous carcinoma); conditions: Homo sapiens, A-431
Protocol: as §1

SA = assay: MTT cytotoxicity assay, SA (pancreatic cancer as headed)
Protocol: as §1

MCF-7 = assay: MTT cytotoxicity assay, MCF-7 (breast cancer); conditions: Homo sapiens, MCF7; Breast Cancer MCF-7, MTT
Protocol: as §1

SiHa = assay: MTT cytotoxicity assay, SiHa (ovarian cancer as headed); conditions: Homo sapiens, Cervical Cancer SiHa
SW620 = assay: MTT cytotoxicity assay, SW620 (colon cancer); conditions: Homo sapiens, SW-620
SW480 = assay: MTT cytotoxicity assay, SW480 (colon cancer); conditions: Homo sapiens
[1] = tested on: multiple types of cancer cells; assay: MTT cytotoxicity, statements over several cancer cell lines; conditions: for direct anti-cancer cell activity: summary statement
Protocol: as §1

SW620 cells = assay: Drug sensitivity MTT assay with TRAIL, SW620; set-up: scale not given here; conditions: for NZJU alone mean value (sensitivity, growth inhibition): drug alone (19-100 μM; TRAIL 100 ng/ml); for NZJU alone mean value (sensitivity, growth inhibition) / combine mean value (sensitivity, growth inhibition): 48 h; for Enhanced mean value: enhancement due to co-administration with TRAIL; for combine mean value (sensitivity, growth inhibition): mimetic at the dose of its row combined with TRAIL 100 ng/ml
Protocol: (§2) Cell survival after exposure to the anti-tumor agents was examined by MTT cytotoxicity assay. Cells were seeded in each well of a 96-well plate for 24 h. After incubation with various concentrations of compounds, TRAIL, or both for 48 h, the medium was discarded. Then, 50 μl of 1 mg/ml 3-(4,5-dimethylthiazol-2-yl)-2,5-diphenyltetrazolium bromide (MTT, Sigma-Aldrich Chemical) was added to each well for 4 h incubation at 37° C. The purple formazan formed was then solubilized by DMSO and absorbance at 570 nm was read by a microplate reader (Molecular Devices, Sunnyvale, Calif.).

MCF-7 cells = assay: Drug sensitivity MTT assay with TRAIL, MCF-7; set-up: scale not given here; conditions: for NZJU alone mean value (sensitivity, growth inhibition): drug alone (19-100 μM; TRAIL 100 ng/ml); for NZJU alone mean value (sensitivity, growth inhibition) / combine mean value (sensitivity, growth inhibition): 48 h; for Enhanced mean value: enhancement due to co-administration with TRAIL; for combine mean value (sensitivity, growth inhibition): mimetic at the dose of its row combined with TRAIL 100 ng/ml
Protocol: as §2

HELA cells = assay: Drug sensitivity MTT assay with TRAIL, HELA; set-up: scale not given here; conditions: for NZJU alone mean value (sensitivity, growth inhibition): drug alone (19-100 μM; TRAIL 100 ng/ml); for NZJU alone mean value (sensitivity, growth inhibition) / combine mean value (sensitivity, growth inhibition): 48 h; for Enhanced mean value: enhancement due to co-administration with TRAIL; for combine mean value (sensitivity, growth inhibition): mimetic at the dose of its row combined with TRAIL 100 ng/ml
Protocol: as §2

[2] = tested on: cancer cells (TRAIL resistance); assay: Sensitization of cancer cells to TRAIL-induced apoptosis, general statements; conditions: summary statement
Protocol: as §2

MES-SA cells = assay: Apoptosis assay, Hoechst 33342 fluorescence staining; conditions: doses of their IC50 for 8 h
Protocol: The cells were then washed with PBS and stained with Hoechst 33342 (from sigma chemical) for 20 min in the dark. Morphologic changes were analyzed under a fluorescence microscope. The experiment was repeated three times.

[3] = all five cell lines tested, read-out: IC50 values

SMILES	IC50 (HepG2) [µM]	IC50 (A431) [µM]	IC50 (SA) [µM]	IC50 (MCF-7) [µM]	IC50 (SiHa) [µM]	IC50 (SW620) [µM]	IC50 (SW480) [µM]	direct anti-cancer cell activity [1]	NZJU alone mean value (sensitivity, growth inhibition) (SW620 cells)	Enhanced mean value (SW620 cells)	combine mean value (sensitivity, growth inhibition) (SW620 cells)	NZJU alone mean value (sensitivity, growth inhibition) (MCF-7 cells)	Enhanced mean value (MCF-7 cells)	combine mean value (sensitivity, growth inhibition) (MCF-7 cells)	NZJU alone mean value (sensitivity, growth inhibition) (HELA cells)	Enhanced mean value (HELA cells)	combine mean value (sensitivity, growth inhibition) (HELA cells)	TRAIL sensitization activity [2]	IC50 [1, 3] [µM]	apoptotic cell death, fluorescent micrographs (FIG. 30) (MES-SA cells)	also measured
CCCCCCCCCCCCNC(=O)[C@@H](NC(=O)c1ccco1)[C@@H](C)O [NZJU13, N-((2S,3R)-3-hydroxy-1-oxo-1-(dodecylamino)butan-2-yl)-Furan-2-carboxamide]	147 ± 22.3	92.4 ± 2.64	93.5 ± 3.13	67.5 ± 4.88	64.3 ± 1.68	87.5 ± 7.58	125 ± 16.1	direct anti-cancer cell activity	0.126	0.321	0.520	0.148	0.321	0.582	0.146	0.254	0.435	TRAIL sensitization activity			
CCCCCCCCCCCCNC(=O)[C@@H](NC(=O)c1ccccc1)[C@@H](C)O [NZJU16, N-((2S,3R)-3-hydroxy-1-oxo-1-(dodecylamino)butan-2-yl)-benzamide]	> 400	41.2 ± 0.69	75.5 ± 6.24	36.6 ± 8.86	63.9 ± 6.01	≥ 200	67.2 ± 7.42	direct anti-cancer cell activity	0.376	0.304	0.607	0.479	0.197	0.741	0.264	0.298	0.597	TRAIL sensitization activity			
CCCCCCCCCCCCNC(=O)[C@@H](NC(=O)Cc1c[nH]c2ccccc12)[C@@H](C)O [NZJU27, N-((2S,3R)-3-hydroxy-1-oxo-1-(dodecylamino)butan-2-yl)-indole-3-acetic acid amide]	22.6 ± 2.89	23.4 ± 3.48	20 ± 0.74	15.5 ± 2.3	13.6 ± 1.02	22 ± 2.86	20	direct anti-cancer cell activity											< 30	apoptotic cell death	
CCCCCCCCCCCCCCNC(=O)[C@@H](NC(=O)Cc1c[nH]c2ccccc12)[C@@H](C)O [NZJU28, N-((2S,3R)-3-hydroxy-1-oxo-1-(tetradecylamino)butan-2-yl)-indole-3-acetic acid amide]	21.1 ± 1.92	15.5 ± 2.95	11.5 ± 0.97	6.81 ± 1.73	4.8 ± 0.29	22 ± 0.71	20	direct anti-cancer cell activity											< 30	apoptotic cell death	
CCCCCCCCCCCCNC(=O)[C@@H](NC(=O)c1nccc2ccccc12)[C@@H](C)O [NZJU30, N-((2S,3R)-3-hydroxy-1-oxo-1-(dodecylamino)butan-2-yl)-isoquinoline-1-carboxamide]	65.7 ± 2.63	62.8 ± 7.56	51.93 ± 0.42	50.5 ± 5.65	56.6 ± 4.91	65.8 ± 4.14	58.8	direct anti-cancer cell activity	−0.038	0.375	0.493	0.002	0.157	0.274	0.057	0.075	0.195	TRAIL sensitization activity			NZJU alone mean value (sensitivity, growth inhibition) (SW620 cells; listed as NZJU2f): very little sensitivity
CCCCCCCCCCCCCCNC(=O)[C@@H](NC(=O)c1cccs1)[C@@H](C)O [NZJU34, N-((2S,3R)-3-hydroxy-1-oxo-1-(tetradecylamino)butan-2-yl)-2-thiophene carboxamide]	88.4 ± 15.5	26.4 ± 4.03	21.2 ± 3.78	36.07 ± 0.27	63 ± 0.25	78.4 ± 11.1	70.3	direct anti-cancer cell activity	0.315	0.275	0.664	0.444	0.263	0.759	0.334	0.375	0.744	TRAIL sensitization activity			
CCCCCCCCCCCCNC(=O)[C@@H](NC(=O)c1cc2ccccc2o1)[C@@H](C)O [NZJU36, N-((2S,3R)-3-hydroxy-1-oxo-1-(dodecylamino)butan-2-yl)-benzofuran-2-carboxamide]	22.9 ± 1.18	20 ± 0.9	10.5 ± 1.31	20.9 ± 0.54	12.8 ± 2.07	21.3 ± 1.28	21.4	direct anti-cancer cell activity											< 30	apoptotic cell death	
CCCCCCCCCCCCCCNC(=O)[C@@H](NC(=O)c1cc2ccccc2o1)[C@@H](C)O [NZJU37, N-((2S,3R)-3-hydroxy-1-oxo-1-(tetradecylamino)butan-2-yl)-benzofuran-2-carboxamide]	23.4 ± 1.19	20.09 ± 0.16	9.61 ± 0.56	23.4 ± 1.19	14.2 ± 1.84	26.7 ± 2.48	22.8	direct anti-cancer cell activity											< 30	apoptotic cell death	
C/C=C/C=C/C(=O)N[C@H](C(=O)NCCCCCCCC)[C@@H](C)O [NZJU41, (2E,4E)-N-((2S,3R)-3-hydroxy-1-oxo-1-(octylamino)butan-2-yl)-2,4-hexadienoic acid amide]	102 ± 4.07	58.24 ± 0.11	40.4 ± 2.16	149 ± 3.24	123 ± 2.5	≥ 200	158	direct anti-cancer cell activity	0.551	0.169	0.790	0.347	0.113	0.625	0.362	0.421	0.819	TRAIL sensitization activity			
CCCCCCCCCCCCCCNC(=O)[C@@H](NC(=O)c1cc2ccccc2[nH]1)[C@@H](C)O [NZJU48, N-((2S,3R)-3-hydroxy-1-oxo-1-(tetradecylamino)butan-2-yl)-indole-2-carboxamide]	10.5 ± 0.35	12.2 ± 1.9	12.1 ± 2.77		14.2 ± 1.8		11.8 ± 1.46	direct anti-cancer cell activity												apoptotic cell death	IC50 ([1]; all of the cell lines tested, read-out: IC50 values): < 20 µM; IC50 ([1]; multiple types of cancer cells, read-out: IC50): < 20 µM
CCCCCCCCCCCCCCNC(=O)[C@@H](NC(=O)c1cc2ccccc2n1C)[C@@H](C)O [NZJU51, N-((2S,3R)-3-hydroxy-1-oxo-1-(tetradecylamino)butan-2-yl)-(N-methyl)indole-2-carboxamide]	34.5 ± 2.34	13.7 ± 1.73	25.7 ± 0.42		26.5 ± 2.33		34.2 ± 1.36	direct anti-cancer cell activity												apoptotic cell death	
